Source: patent publication US5831115A, “Inhibitors of squalene synthase and protein farnesyltransferase” (Abbott Laboratories, priority 1996, dated 1998)

Biological target: T1, Rat brain protein farnesyltransferase (Rattus norvegicus, UniProt Q02293+Q04631)
T1 construct: Rat brain protein farnesyltransferase activity was measured; from tissue; host or cells: rat brain; partially purified by steps one through three of Reiss et al., Cell 62:81-88 (1990)
Assay: In vitro Inhibition of Protein Farnesyltransferase (scintillation proximity assay, biotin-K Ras B fragment)
Type: biochemical
Settings: rat brain enzyme
Description: In vitro inhibition of protein farnesyltransferase may be measured by the following procedure. (Procedures for determination of the inhibition of farnesylation of the oncogene protein Ras are described by Goldstein, et al., J. Biol. Chem., 266:15575-15578 (1991) and by Singh in U.S. Pat. No. 5,245,061 both of which are incorporated herein by reference.)
Rat brain protein farnesyltransferase activity was measured using an Amersham Life Science commercial scintillation proximity assay kit and substituting a biotin-K Ras B fragment (biotin-Lys-Lys-Ser-Lys-Thr-Lys-Cys-Val-lle-Met-CO2 H), 0.1 μM final concentration, for the biotin-lamin substrate provided by Amersham. The enzyme was purified according to Reiss, Y., et al., Cell, 62:81-88 (1990), utilizing steps one through three. The specific activity of the enzyme was approximately 10 nmol substrate farnesylated/mg enzyme/hour. […]

Row | SMILES | inhibition at 1 µM [%]
1 | O=C(OCc1ccccc1)[C@@H]1[C@H](C(=O)O)[C@@H](C(=O)OCc2ccccc2)[C@H]1C(=O)N(Cc1ccccc1)Cc1ccc(Oc2ccccc2)cc1 (relative stereo) [Example 3, (1α,2β,3β,4α)-1-[N-Benzyl-N-(4-phenoxybenzyl)aminocarbonyl]-2,4-di(benzyloxycarbonyl)cyclobutane-3-carboxylic acid] | 45
2 | O=C(O)[C@@H]1[C@H](C(=O)O)[C@@H](C(=O)O)[C@H]1C(=O)N(Cc1ccccc1)Cc1ccc(Oc2ccccc2)cc1 (relative stereo) [Example 4, (1α,2β,3β,4α)-1-[N-Benzyl-N-(4-phenoxybenzyl)aminocarbonyl]cyclobutane-2,3,4-tricarboxylic acid] | 99
3 | O=C(OCc1ccccc1)[C@@H]1[C@H](C(=O)O)[C@@H](C(=O)OCc2ccccc2)[C@H]1C(=O)N(Cc1ccc(Oc2ccccc2)cc1)Cc1cccs1 (relative stereo) [Example 5, (1α,2β,3β,4α)-1-[N-(Thien-2-ylmethyl)-N-(4-phenoxybenzyl)aminocarbonyl]-2,4-di(benzyloxycarbonyl)cyclobutane-3-carboxylic acid] | 21
4 | O=C(O)[C@@H]1[C@H](C(=O)O)[C@@H](C(=O)O)[C@H]1C(=O)N(Cc1ccc(Oc2ccccc2)cc1)Cc1cccs1 (relative stereo) [Example 6, (1α,2β,3β,4α)-1-[N-(Thien-2-ylmethyl)-N-(4-phenoxybenzyl)aminocarbonyl]cyclobutane-2,3,4-tricarboxylic acid] | 89
5 | COC(=O)[C@H]1[C@@H](C(=O)O)[C@H](C(=O)N(Cc2ccccc2)Cc2ccc(Oc3ccccc3)cc2)[C@@H]1C(=O)O (relative stereo) [Example 8, (1α,2β,3β,4α)-1-[N-Benzyl-N-(4-phenoxybenzyl)aminocarbonyl]-3-(methyloxycarbonyl)cyclobutane-2,4-dicarboxylic acid] | 79
6 | CC(Cc1ccccc1)C(O)CCCN(Cc1ccccc1)C(=O)C1C(C(=O)O)C(C(=O)O)C1C(=O)O (stereo not drawn) [Example 1, (1α,2β,3β,4α)-1-[N-Benzyl-N-{(4S*,5S*)-(4-hydroxy-5-methyl)-6-phenylhexyl}aminocarbonyl]cyclobutane-2,3,4-tricarboxylic acid] | 92

Biological target: T2, Rat liver microsomal squalene synthase (Rattus norvegicus, UniProt Q02769)
T2 construct: Rat liver microsomes, the source of enzyme, were prepared; from tissue; host or cells: rat liver microsomes
T2 sequence (Q02769 1-416): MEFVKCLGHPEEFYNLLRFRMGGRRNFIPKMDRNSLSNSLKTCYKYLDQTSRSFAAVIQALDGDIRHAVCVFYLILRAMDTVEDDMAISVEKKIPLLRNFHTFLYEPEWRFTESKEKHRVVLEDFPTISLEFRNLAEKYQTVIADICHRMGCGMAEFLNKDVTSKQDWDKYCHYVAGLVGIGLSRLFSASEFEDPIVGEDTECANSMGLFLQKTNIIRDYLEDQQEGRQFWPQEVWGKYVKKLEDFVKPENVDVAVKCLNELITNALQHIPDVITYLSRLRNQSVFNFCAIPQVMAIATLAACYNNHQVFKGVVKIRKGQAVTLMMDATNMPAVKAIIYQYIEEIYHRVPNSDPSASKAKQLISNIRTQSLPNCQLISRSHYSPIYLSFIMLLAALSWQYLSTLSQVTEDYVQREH
Assay: In vitro Inhibition of Squalene Synthase (rat liver microsomal, radioactive farnesyl diphosphate substrate)
Type: biochemical
Settings: rat liver microsomes
Description: In vitro inhibition of squalene synthase may be measured by the following procedure.
Rat liver microsomal squalene synthase activity was measured using radioactive farnesyl diphosphate as a substrate and quantitating squalene synthesis by counting the radioactive squalene formed.
Rat liver microsomes, the source of enzyme, were prepared according to the method of Gillies, P. J., et al., Exp. Molc. Pathol. 44: 329-339 (1986), a modification of the procedure of Erickson, S. K., and Cooper, A. D., Metabolism, 29: 991-996 (1980). Approximately 30 μg of microsomal protein was incubated for 10 minutes at 37° C. with […] of ^3 H-farnesyl diphosphate, 49 mCi/mmol, and test compound in the presence of squalene (2 μL), Mg++, KF, reduced B-nicotinamide adenine dinucleotide phosphate, dithiothreitol, and K2 PO4, pH 7.35, in a total volume of 200 μL. Oxygen was excluded from the closed incubation tube by degassing with nitrogen. The reaction was terminated by the addition of ethanolic KOH and after degassing with N2, the microsomal membranes were solubilized by heating at 60° C. for 30 minutes. The squalene was extracted into hexane, and the squalene was separated from all other radioactive molcules by passage over an activated alumina column. The solution was collected in scintillation vials, evaporated to dryness, liquid scintillation fluid was added, and the radioactivity was determined in a liquid scintillation counter. The percent inhibition at a dose of 1 μM compared to controls with no test compound was determined.

Row | SMILES | % Inhibition at 1 μM [%] | inhibition at 1 µM [%]
7 | C[C@H](NC(=O)C1CC(CO)C1C(=O)[O-])[C@H](Cc1ccc(Cl)cc1)c1ccc(-c2ccccc2)cc1.[Na+] (mixture of isomers) [Example 41, (±)-(1α,2β,4α)-2-[N-{(2S,3R)-4-(4-Chlorophenyl)-3-(4-biphenylyl)-2-butyl}aminocarbonyl]-4-hydroxymethylcyclobutane-1-carboxylic acid sodium salt] | 80 | 
8 | CC(NC(=O)[C@H]1C[C@H](C(=O)O)[C@H]1C(=O)O)C(Cc1ccc(Cl)cc1)c1ccc(-c2ccccc2)cc1 (relative stereo) [Example 34, (1β,2α,3α)-3-[N-{(2S,3R)-4-(4-chlorophenyl)-3-(4-biphenylyl)-2-butyl}aminocarbonyl]cyclobutane-1,2-dicarboxylic acid] |  | 94
9 | O=C(O)[C@H]1[C@H](C(=O)O)[C@H](C(=O)O)[C@H]1C(=O)N(CCCCCCCCCCc1ccccc1)Cc1ccccc1 (relative stereo) [Example 35, (1β,2β,3α,4α)-4-[N-Benzyl-N-(10-phenyldecyl)aminocarbonyl]cyclobutane-1,2,3-tricarboxylic acid] |  | 47
10 | O=C(O)[C@H]1[C@H](C(=O)O)[C@H](C(=O)O)[C@H]1C(=O)N(Cc1ccc(Oc2ccccc2)cc1)Cc1ccc(Cl)c(Cl)c1 (relative stereo) [Example 46] |  | 53
11 | COC(=O)[C@@H]1[C@H](C(=O)O)[C@@H](C(=O)O)[C@H]1C(=O)N[C@@H](C)[C@@H](Cc1ccc(Cl)c(Cl)c1)OC(=O)c1ccc2ccccc2c1 [Example 23, (1S,2R,3S,4R)-3-Methoxycarbonyl-4-[N-{(2S,3R)-4-(3,4-dichlorophenyl)-3-(2-naphthoyloxy)-2-butyl}aminocarbonyl]cyclobutane-1,2-dicarboxylic acid] |  | 98
12 | COC(=O)[C@H]1[C@@H](C(=O)O)[C@H](C(=O)O)[C@@H]1C(=O)N[C@@H](C)[C@@H](Cc1ccc(Cl)c(Cl)c1)OC(=O)c1ccc2ccccc2c1 [Example 24] |  | 27
13 | C[C@H](NC(=O)[C@H]1[C@H](C(=O)O)[C@H](C(=O)O)[C@H]1C(=O)O)[C@@H](Cc1ccc(Cl)c(Cl)c1)OC(=O)c1ccc2ccccc2c1 [Example 25, (1S,2S,3S,4R)-4-[N-{(2S,3R)-4-(3,4-Dichlorophenyl)-3-(2-naphthoyloxy)-2-butyl}aminocarbonyl]cyclobutane-1,2,3-tricarboxylic acid] |  | 35
14 | C[C@H](NC(=O)[C@H]1[C@@H](C(=O)O)[C@H](C(=O)O)[C@@H]1C(=O)O)[C@@H](Cc1ccc(Cl)c(Cl)c1)OC(=O)c1ccc2ccccc2c1 [Example 26, (1R,2R,3R,4S)-4-[N-{(2S,3R)-4-(3,4-Dichlorophenyl)-3-(2-naphthoyloxy)-2-butyl}aminocarbonyl]cyclobutane-1,2,3-tricarboxylic acid] |  | 52
15 | COC(=O)[C@@H]1[C@@H](C(=O)O)[C@@H](C(=O)O)[C@@H]1C(=O)N[C@@H](C)[C@@H](Cc1ccc(Cl)c(Cl)c1)OC(=O)c1ccc2ccccc2c1 [Example 27, (1S,2S,3S,4S)-3-Methoxycarbonyl-4-[N-{(2S,3R)-4-(3,4-dichlorophenyl)-3-(2-naphthoyloxy)-2-butyl}aminocarbonyl]cyclobutane-1,2-dicarboxylic acid] |  | 98
16 | C[C@H](NC(=O)C1CCC1C(=O)O)[C@H](Cc1ccc(Cl)cc1)c1ccc(-c2ccccc2)cc1 (stereo partly drawn) [Example 37, 2-[N-{(2S,3R)-4-(4-Chlorophenyl)-3-(4-biphenylyl)-2-butyl}aminocarbonyl]cyclobutane-1-carboxylic acid] |  | 90
17 | CCCN(CCCC(OC(=O)c1ccc2ccccc2c1)C(C)Cc1ccccc1)C(=O)C1C(C(=O)O)C(C(=O)O)C1C(=O)O (stereo not drawn) [Example 43, (1α,2β,3β,4α)-4-{N-Propyl-N-[(4S*,5S*)-(5-methyl-4-napthoyloxy)-6-phenylhexyl]aminocarbonyl}cyclobutane-1,2,3-tricarboxylic acid] |  | 63
18 | CCCN(CCCC=CC(C)CCCc1ccccc1)C(=O)C1C(C(=O)O)C(C(=O)O)C1C(=O)O [Example 44, (1α,2α,3β,4β)-4-{N-Propyl-N-[(R)-6-methyl-9-phenyl-(E)-4-nonenyl]aminocarbonyl}cyclobutane-1,2,3-tricarboxylic acid] |  | 25
19 | CC(C=CCCCN(Cc1ccccc1)C(=O)C1C(C(=O)O)C(C(=O)O)C1C(=O)O)CCCc1ccccc1 [Example 45, (1α,2α,3β,4β)-4-{N-Benzyl-N-[(R)-6-methyl-9-phenyl-(E)-4-nonenyl]aminocarbonyl}cyclobutane-1,2,3-tricarboxylic acid] |  | 67

Biological target: T2, Rat liver microsomal squalene synthase
Assay: as above
Type: biochemical
Settings: 0.15 μM (footnote *); rat liver microsomes

Row | SMILES | inhibition at 0.15 µM [%]
20 | CC(NC(=O)C1C(C(=O)O)C(C(=O)O)C1C(=O)O)C(Cc1ccc(Cl)cc1)c1ccc(-c2ccccc2)cc1 [Example 29, (1α,2α,3α,4α)-4-[N-{(2S,3R)-4-(4-chlorophenyl)-3-(4-biphenylyl)-2-butyl}aminocarbonyl]cyclobutane-1,2,3-tricarboxylic acid] | 81
